Experimental data published in PubChem BioAssay (NCI).
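Abbreviation: GI50, concentration required for 50% inhibition of growth. Definition used: TGI = concentration required for complete inhibition of growth.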

Key:
Assay in all cases: NCI tumour cell line growth inhibition, 384-well format
MDA-MB-468 breast = tested on: MDA-MB-468 breast
PC-3 prostate = tested on: PC-3 prostate
TK-10 renal = tested on: TK-10 renal
SN12C renal = tested on: SN12C renal
HCC-2998 colon = tested on: HCC-2998 colon
A549 NSCLC = tested on: A549 NSCLC
HOP-92 NSCLC = tested on: HOP-92 NSCLC
HOP-62 NSCLC = tested on: HOP-62 NSCLC
MCF7 breast = tested on: MCF7 breast
CAKI-1 renal = tested on: CAKI-1 renal
NCI-H23 lung = tested on: NCI-H23 lung
UO-31 renal = tested on: UO-31 renal
KM12 colon = tested on: KM12 colon
OVCAR-5 ovarian = tested on: OVCAR-5 ovarian
RXF 393 renal = tested on: RXF 393 renal
HCT-15 colon = tested on: HCT-15 colon
HS 578T breast = tested on: HS 578T breast
NCI-H460 NSCLC = tested on: NCI-H460 NSCLC
NCI-H522 lung = tested on: NCI-H522 lung
SW-620 colon = tested on: SW-620 colon
T-47D breast = tested on: T-47D breast
NCI/ADR-RES ovarian = tested on: NCI/ADR-RES ovarian
SF-539 CNS = tested on: SF-539 CNS
DU-145 prostate = tested on: DU-145 prostate
SK-OV-3 ovarian = tested on: SK-OV-3 ovarian
SR leukemia = tested on: SR leukemia
K-562 leukemia = tested on: K-562 leukemia
NCI-H226 lung = tested on: NCI-H226 lung
LOX IMVI melanoma = tested on: LOX IMVI melanoma
CCRF-CEM leukemia = tested on: CCRF-CEM leukemia
ACHN renal = tested on: ACHN renal
SK-MEL-28 melanoma = tested on: SK-MEL-28 melanoma
RPMI-8226 leukemia = tested on: RPMI-8226 leukemia
SNB-75 CNS = tested on: SNB-75 CNS
MDA-MB-231 breast = tested on: MDA-MB-231 breast
U251 glioblastoma = tested on: U251 glioblastoma
SF-295 CNS = tested on: SF-295 CNS
IGROV1 ovarian = tested on: IGROV1 ovarian
UACC-62 melanoma = tested on: UACC-62 melanoma
COLO 205 colon = tested on: COLO 205 colon
HT29 colon = tested on: HT29 colon
OVCAR-8 ovarian = tested on: OVCAR-8 ovarian
NCI-H322M lung = tested on: NCI-H322M lung
MALME-3M melanoma = tested on: MALME-3M melanoma
OVCAR-3 ovarian = tested on: OVCAR-3 ovarian
HL-60(TB) leukemia = tested on: HL-60(TB) leukemia
OVCAR-4 ovarian = tested on: OVCAR-4 ovarian
MDA-MB-435 melanoma = tested on: MDA-MB-435 melanoma
SK-MEL-5 melanoma = tested on: SK-MEL-5 melanoma
BT-549 breast = tested on: BT-549 breast
A498 renal = tested on: A498 renal
SNB-19 CNS = tested on: SNB-19 CNS
786-0 renal = tested on: 786-0 renal
M14 melanoma = tested on: M14 melanoma
SF-268 CNS = tested on: SF-268 CNS
MOLT-4 leukemia = tested on: MOLT-4 leukemia

Structure (SMILES): Cc1cc2c(F)c(Oc3ncnn4cc(OC[C@@H](C)OC(=O)[C@H](C)N)c(C)c34)ccc2[nH]1
- GI50 (MDA-MB-468 breast): 2.16 µM
- TGI (MDA-MB-468 breast): 5.55 µM
- GI50 (PC-3 prostate): 3.17 µM
- GI50 (TK-10 renal): 2.27 µM
- GI50 (SN12C renal): 4.53 µM
- GI50 (HCC-2998 colon): 3.59 µM
- GI50 (A549 NSCLC): 4.99 µM
- TGI (A549 NSCLC): 17.7 µM
- GI50 (HOP-92 NSCLC): 4.17 µM
- TGI (HOP-92 NSCLC): 17.3 µM
- GI50 (HOP-62 NSCLC): 6.64 µM
- TGI (HOP-62 NSCLC): 20.3 µM
- GI50 (MCF7 breast): 3.45 µM
- TGI (MCF7 breast): 16.7 µM
- GI50 (CAKI-1 renal): 3.65 µM
- TGI (CAKI-1 renal): 16.4 µM
- GI50 (NCI-H23 lung): 10.1 µM
- TGI (NCI-H23 lung): 21.7 µM
- GI50 (UO-31 renal): 6.25 µM
- GI50 (KM12 colon): 3.17 µM
- TGI (KM12 colon): 13.8 µM
- GI50 (OVCAR-5 ovarian): 8.29 µM
- GI50 (RXF 393 renal): 3.75 µM
- TGI (RXF 393 renal): 14.2 µM
- GI50 (HCT-15 colon): 0.914 µM
- TGI (HCT-15 colon): 3.46 µM
- GI50 (HS 578T breast): 6.21 µM
- TGI (HS 578T breast): 17.7 µM
- GI50 (NCI-H460 NSCLC): 0.643 µM
- TGI (NCI-H460 NSCLC): 4.37 µM
- GI50 (NCI-H522 lung): 4.57 µM
- GI50 (SW-620 colon): 4.96 µM
- TGI (SW-620 colon): 17.7 µM
- GI50 (T-47D breast): 3.34 µM
- GI50 (NCI/ADR-RES ovarian): 3.52 µM
- GI50 (SF-539 CNS): 2.25 µM
- TGI (SF-539 CNS): 10.9 µM
- GI50 (DU-145 prostate): 3.74 µM
- GI50 (SK-OV-3 ovarian): 5.13 µM
- GI50 (SR leukemia): 0.0548 µM
- TGI (SR leukemia): 0.241 µM
- GI50 (K-562 leukemia): 1.04 µM
- TGI (K-562 leukemia): 3.18 µM
- GI50 (NCI-H226 lung): 4.33 µM
- TGI (NCI-H226 lung): 18 µM
- GI50 (LOX IMVI melanoma): 1.43 µM
- TGI (LOX IMVI melanoma): 3.81 µM
- GI50 (CCRF-CEM leukemia): 1.84 µM
- TGI (CCRF-CEM leukemia): 6.14 µM
- GI50 (ACHN renal): 2.97 µM
- GI50 (SK-MEL-28 melanoma): 3.29 µM
- TGI (SK-MEL-28 melanoma): 17.5 µM
- GI50 (RPMI-8226 leukemia): 0.467 µM
- TGI (RPMI-8226 leukemia): 1.94 µM
- GI50 (SNB-75 CNS): 4.41 µM
- TGI (SNB-75 CNS): 17.1 µM
- GI50 (MDA-MB-231 breast): 1.82 µM
- TGI (MDA-MB-231 breast): 18.2 µM
- GI50 (U251 glioblastoma): 3.67 µM
- GI50 (SF-295 CNS): 3.24 µM
- TGI (SF-295 CNS): 12.8 µM
- GI50 (IGROV1 ovarian): 4.71 µM
- GI50 (UACC-62 melanoma): 3.13 µM
- TGI (UACC-62 melanoma): 17.5 µM
- GI50 (COLO 205 colon): 0.847 µM
- TGI (COLO 205 colon): 12.7 µM
- GI50 (HT29 colon): 2.77 µM
- TGI (HT29 colon): 12 µM
- GI50 (OVCAR-8 ovarian): 4.41 µM
- TGI (OVCAR-8 ovarian): 17.2 µM
- GI50 (NCI-H322M lung): 7.3 µM
- TGI (NCI-H322M lung): 19.7 µM
- GI50 (MALME-3M melanoma): 2.07 µM
- TGI (MALME-3M melanoma): 12.5 µM
- GI50 (OVCAR-3 ovarian): 6.03 µM
- GI50 (HL-60(TB) leukemia): 1.04 µM
- TGI (HL-60(TB) leukemia): 3.2 µM
- GI50 (OVCAR-4 ovarian): 7.98 µM
- GI50 (MDA-MB-435 melanoma): 7.77 µM
- GI50 (SK-MEL-5 melanoma): 0.984 µM
- GI50 (BT-549 breast): 3.65 µM
- TGI (BT-549 breast): 15.3 µM
- GI50 (A498 renal): 5.04 µM
- GI50 (SNB-19 CNS): 5.13 µM
- GI50 ([…]-0 renal): 3.54 µM
- GI50 (M14 melanoma): 4.9 µM
- TGI (M14 melanoma): 17.4 µM
- GI50 (SF-268 CNS): 3.4 µM
- TGI (SF-268 CNS): 16.8 µM
- GI50 (MOLT-4 leukemia): 0.272 µM
- TGI (MOLT-4 leukemia): 0.612 µM
